Assay results published in patent publication US11903397B2, “Hay preservative and methods for preservation of hay” (DANSTAR FERMENT AG, priority 2014, dated 2024).
Marks after values point to notes of the source that are not given here.

What was measured:
[1] = Temperature stability of alfalfa hay bales (Example 2, FIG. 2, FIG. 3)
Source text: (§1) The application rate of the combination of P. anomala in combination with the enzyme having a chitinase activity was respectively 10^11 CFU and 1.5 g in 1 L of water per ton of hay. Accordingly, the application rate of the combination of P. pentosaceus in combination with the enzyme having a chitinase activity 10^11 CFU and 1.5 g in 1 L of water per ton of hay. […] The negative control was water, and was applied at a rate of 1 L per ton of hay. Five large round bales of about 800 kg were made in accordance with Example 1 for each treatment on the same day. Core samples from bales across all treatments were collected at day 0, 90 and 180 after baling to analyze their nutritional value, fermentation product and microbial changes.
Temperature of individual bales was monitored by continuously measuring the interior temperature throughout the storage period with three (3) Dallas Thermochron iButtons (Embedded Data Systems, Lawrenceburg, KY) inserted in the interior of each bale immediately after harvest (illustrated in pictures). The temperature was recorded at 4 hours intervals for 10 weeks.

[2] = tested on: molds; assay: Enumeration of molds on hay (Example 1)
Description: (§2) Two trial bales were made to determine time to complete application of the additive on one bale, weight of the bale as well as a more accurate measure of moisture content of the baled material. Bale moisture was determined using a hay probe. […] The application rate of P. anomala was 10^11 CFU in 1 L per ton of hay. The enzyme having a chitinase activity was applied at a rate of 1.5 g (suspended in 1 L of water) per ton of hay, corresponding to about 6 U per ton of hay. […] The negative control was water, and was applied at a rate of 1 L per ton of hay. […] Five replicate bales were made for each treatment. Samples of the P. anomala were taken after each application to verify the viability and numbers of the organism. […]
(§3) Chemical and microbiological analyses were conducted on hay samples collected from six different sections of the field and on composite core samples obtained from four different locations on each bale on day 1, 90, and 180 of storage. […] Dry matter (DM), organic matter (OM) and crude protein (CP) were determined according to AOAC (1990) procedures, and neutral detergent fibre (NDF), acid detergent fibre (ADF), and acid detergent insoluble nitrogen (ADIN) as described by Van Soest et al., (1991. Methods for dietary fiber, neutral detergent and non-starch polysaccharides in relation to animal nutrition. J. Dairy Sci. 74: 3583-3597.).

[3] = tested on: yeasts; assay: Microbial counts on alfalfa hay: yeast (Example 2)
Source text: as §1
(§4) Core samples collected on day 0 and 90, 180 after baling were subjected to microbiological and chemical analysis. Microbiological analysis was conducted to enumerate, isolate and characterize the microorganisms (total bacteria, yeasts and moulds) on appropriate plates through serial dilution.

[4] = tested on: total bacteria; assay: Microbial counts on alfalfa hay: total bacteria (Example 2)
Source text: as §1, §4

[5] = tested on: lactic acid producing bacteria (LAB); assay: Enumeration of lactic acid producing bacteria on hay (Example 1)
Description: as §2, §3

[6] = In situ NDF disappearance of hay in the rumen (Example 1); type: in vivo, Jersey cows; settings: fitted equation; day 180 hay
Description: (§5) In situ rate and extent of DM and NDF disappearance of the day 180 hay samples were determined in three cows fitted with ruminal cannulas and fed a standard feedlot backgrounding diet consisting of 50% timothy hay plus 50% barley silage (DM basis). Subsamples of the day 180 core samples obtained from bales treated with the same preservative were composited and ground to pass through a 4 mm screen. Approximately 4 g of each composite sample was weighed into Dacron bags and incubated in triplicate in each cow for 0, 2, 6, 12, 24, 48, 72, 96, and 120 h. Bags were made of monofilament polyester mesh (53 μm pore size, 5 cm×20 cm, Ankom, Fairport, New York). Cows were given two weeks to adapt to their diets before starting incubations. Immediately after incubation, bags were rinsed under cold tap water until all the rumen contents on the outside of the bags had been removed. Bags were washed in a domestic washing machine in cold water for three minutes using the delicate washing cycle without detergent and spin cycle. The washing procedure was repeated once. […] The residues from triplicate bags of the same treatment incubated in the same cow were pooled and ground to pass through a 1 mm screen before being analyzed for NDF as per the method stated above. Percentage disappearance of DM and NDF were calculated from the proportion remaining in the bags after each incubation time. […]

[7] = tested on: total bacteria (non-fastidious bacteria growing on nutrient agar); assay: Enumeration of total bacteria on hay (Example 1)
Description: as §2, §3

[8] = tested on: moulds; assay: Microbial counts on alfalfa hay: mold (Example 2)
Source text: as §1, §4

[9] = tested on: yeasts; assay: Enumeration of yeasts on hay (Example 1)
Description: as §2, §3

[10] = In situ DM disappearance of hay in the rumen (Example 1); type: in vivo, Jersey cows; settings: fitted equation, day 180 hay
Description: as §5

[11] = Quality evaluation of hay (color, odor, grade) after 180 days (Example 1); parameters: key to GRADE (overall evaluation by examiner): VP: very poor; P: poor; A: average; G: good; VG: very good
Source text: All bales were opened on day 180 and their quality assessed based on the Maryland Cooperative Extension Fact Sheet #644.
Temperature stability of the bales was monitored by continuously measuring the interior temperature of each bale with three Dallas Thermochron iButtons (Embedded Data Systems, Lawrenceburg, KY) that were inserted in the core holes the following morning after baling. The iButtons were configured to record temperatures every hour during the first 60 days of the storage period. […] Bales were opened and visually scored for extent of spoilage and mold at the end of the storage period (180 d) based on the Maryland Cooperative Extension Fact Sheet #644 ‘Evaluating Hay Quality’ (http://www.extension.umd.edu/publications/pdfs/fs644. pdf).

[12] = In situ ruminal digestion parameters of alfalfa hay (Example 2); type: in vivo, cows; settings: hay 180 days after baling
Description: Core samples were collected on day 180 and evaluated for nutritional quality using in situ and in vitro methods.
In situ experiments were conducted to assess the effect of hay preservatives on the rate and extent of digestion of hay samples collected 180 days after baling. Three cows fitted with ruminal cannulas and fed a standard feedlot backgrounding diet were used. Approximately 4 g of each composite sample from each bale (replicate) per treatment was weighed into Dacron bags and incubated in triplicate in each cow for 0, 2, 6, 12, 24, 48, 72, 96, and 120 h. Bags were retrieved after incubation and processed according to LRC SOP to determine in situ ruminal DM and NDF disappearance.

[13] = In vitro digestibility and gas production of alfalfa hay in mixed rumen fluid (Example 2); parameters: species or system cows; settings: 180 day hay
Description: In vitro experiment was also conducted to assess the effect of microbial inoculants on gas production and kinetics from 180 day hay samples. Two runs by mixed rumen fluid from three cows fitted with ruminal cannulas and fed a standard feedlot backgrounding diet were conducted. Approximately 0.5 g of each composite sample of 180d hay per treatment was weighed into vial and incubated in triplicate in each run and gas were measured for 3, 6, 9, 12, 24 and 48 h. Vials were retrieved after incubation and processed according to LRC SOP to determine in vitro ruminal DM disappearance, gas production, ammonia and VFA.

[14] = hay 90 days after treatment at baling
[15] = hay 180 day post treatment at baling
[16] = day 0, unit printed only at total bacteria (log cfu/g DM)
[17] = mean of bales, stored for 180 days

CCC(=O)O [BPA, Propionic Acid]
average interior bale temperature (in words) ([1]; 60 day period post baling, FIG. 2): highest mean temperature over time | time spent above 40° C. (in words) ([1]; storage 2012, FIG. 3): longest time above 40 °C | MOLD [2, 14]: 4.77 cfu log10 | MOLD [2, 15]: 6.24 cfu log10 | YEAST count [3, 16]: 5.49 | YEAST count ([3]; day 90): 6.22 | YEAST count ([3]; day 180): 4.89 | Total bacteria ([4]; day 0): 6.34 log cfu/g DM | Total bacteria ([4]; day 90): 8.49^a log cfu/g DM | Total bacteria ([4]; day 180): 8.25^a log cfu/g DM | LAB (bacteria growing on MRS presumed to be Lactobacilli) [5, 14]: 4.88^c cfu log10 | MRS [5, 15]: 6.28 cfu log10 | NDF disappearance kinetics: Lag [6]: 2.87^ab h | NDF disappearance kinetics: c (fractional rate of disappearance of fraction b) [6]: 0.069 h⁻¹ | TB (non-fastidious bacteria growing on nutrient agar) [7, 14]: 6.10 cfu log10 | NA [7, 15]: 7.23 cfu log10 | MOLD count [8, 16]: 4.66 | MOLD count ([8]; day 90): 5.91 | YEAST [9, 14]: 5.38 cfu log10 | YEAST [9, 15]: 4.67^b cfu log10 | DM disappearance kinetics: c (fractional rate of disappearance of fraction b) [10]: 0.083^c h^−1 | DM disappearance kinetics: c (fractional rate of disappearance of fraction b) ([10]; listed as propionic acid): 0.083 h⁻¹ | hay quality by visual and sensory assessment (in words) ([11]; bales opened on day 180): poorest quality | COLOR score, Mean [11, 17]: 8.8 points | ODOR score, Mean [11, 17]: 6.8 points | OVERALL score, Mean [11, 17]: 15.6 | GRADE (overall evaluation by examiner) ([11]; single bales (Bale # 1-5), stored for 180 days): P and VP | a = the rapidly degradable fraction [12]: 23.64^c | b = the slowly degradable fraction [12]: 51.69^a | c = the rate at which b is degraded [12]: 0.04^c /h | lag = lag time [12]: 1.70^c h | c = Fractional gas production rate fermentation rate [13]: 6.6^c mL h^−1 | lag = lag time [13]: 0.48^a h
